According to US11730743B2, “Protection of cells from degeneration and treatment of geographic atrophy” (University of Kentucky Research Foundation, priority 2012, dated 2023):

Key:
[1] = test system: mice; assay: RPE degeneration induced by intravitreous recombinant IL-18; type: in vivo; details: wild-type mice; inhibitor intravitreous
Method: (§1) Fundus photography. Retinal photographs of dilated mouse eyes were taken with a TRC-50 IX camera (Topcon) linked to a digital imaging system (Sony).
Immunolabeling. Human eyes fixed in 2-4% paraformaldehyde were prepared as eyecups, cryoprotected in 30% sucrose, embedded in optimal cutting temperature compound (Tissue-Tek OCT; Sakura Finetek), and cryosectioned into 10 μm sections. Depigmentation was achieved using 0.25% potassium permanganate and 0.1% oxalic acid. Immunohistochemical staining was performed with the rabbit antibody against NLRP3 (1:100, Sigma Aldrich) or rabbit antibody against Caspase-1 (prediluted, AbCam). Isotype IgG was substituted for the primary antibody to assess the specificity of the staining. Bound antibody was detected with biotin-conjugated secondary antibodies, followed by incubation with ABC reagent and visualized by Vector Blue (Vector Laboratories). Levamisole (Vector Laboratories) was used to block endogenous alkaline phosphatase activity. Slides were washed in PBS, counterstained with neutral red (Fisher Scientific), rinsed with deionized water, air dried, and then mounted in Vectamount (Vector Laboratories). Fluorescent labeling of human tissue was performed with the rabbit antibody against PYCARD (1:50, Clone N-15, Santa Cruz Biotechnology). Immunolabeling was visualized by fluorescently conjugated anti-rabbit secondary antibody (Invitrogen). Tissue autofluorescence was quenched by incubating the sections in 0.3% Sudan black (Fisher Scientific). Sections were mounted in Vectashield with DAPI (Vector Laboratories). Mouse RPE/choroid flat mounts were fixed with 4% paraformaldehyde or 100% methanol, stained with rabbit antibodies against human zonula occludens-1 (1:100, Invitrogen) and visualized with Alexa594 (Invitrogen). All images were obtained using the Leica SP-5 or Zeiss Axio Observer Z1 microscopes. […]

[2] = test system: human RPE cells
Method: Cell viability. Cell viability measurements were performed using the CellTiter 96 AQueous One Solution Cell Proliferation Assay (Promega) in according to the manufacturer's instructions.
Cell culture. All cell cultures were maintained at 37° C. and 5% CO2. Primary mouse RPE cells were isolated as previously described (Yang et al., 2009) and grown in Dulbecco Modified Eagle Medium (DMEM) supplemented with 20% FBS and standard antibiotics concentrations. Primary human RPE cells were isolated as previously described (Yang et al., 2008) and maintained in DMEM supplemented with 10% FBS and antibiotics. HeLa cells were maintained in DMEM supplemented with 20% FBS and standard antibiotics concentrations. THP-1 cells were cultured in RPMI 1640 medium supplemented with 10% FBS and antibiotics.
Transient transfection. Human or mouse RPE cells were transfected with pUC19, pAlu, pCDNA3.1/Dicer-FLAG, pCDNA3.1, Alu RNA, NLRP3 siRNA sense, PYCARD siRNA sense, MyD88 siRNA sense, DICER1 antisense oligonucleotide (AS), control (for DICER1) AS, Alu AS, and control (for Alu) AS using Lipofectamine 2000 (Invitrogen) according to the manufacturer's instructions.
Cell viability. MTS assays were performed using the CellTiter 96 AQueous One Solution Cell Proliferation Assay (Promega) according to the manufacturer's instructions. For examining the cytoprotective effect of glycine in Alu RNA induced cell death, human RPE cells were transfected with pNull/pAlu. At 6 h post-transfection the cells were incubated with complete media containing glycine (5 mM) or vehicle, and cell viability was assessed after 24 h. Similarly, human RPE cells primed with LPS (5 μg/ml for 6 h) were treated with ATP (25 μM) in the presence of glycine containing media (5 mM). 30 min post ATP cell viability was assessed as described above.

[3] = test system: wild-type mice; assay: Laser-induced choroidal neovascularization; type: in vivo; details: intravitreous injection
[4] = test system: wild-type mice; assay: Alu RNA- or pAlu-induced RPE degeneration after subretinal injection (fundus photographs, ZO-1 flat mounts); type: in vivo; details: subretinal Alu RNA, test agent intravitreous
Method: Subretinal injection and imaging. Subretinal injections (1 μL) in mice were performed using a Pico-Injector (PLI-100, Harvard Apparatus). In vivo transfection of plasmids was achieved using 10% Neuroporter (Genlantis). Fundus imaging was performed on a TRC-50 IX camera (Topcon) linked to a digital imaging system (Sony). Immunolabeling of RPE flat mounts was performed using antibodies against human zonula occludens-1 (Invitrogen).
as §1
Immunolabeling. Human eyes fixed in 2-4% paraformaldehyde were prepared as eyecups, cryoprotected in 30% sucrose, embedded in optimal cutting temperature compound (Tissue-Tek OCT; Sakura Finetek), and cryosectioned into 10 μm sections. Depigmentation was achieved using 0.25% potassium permanganate and 0.1% oxalic acid. Immunohistochemical staining was performed with the rabbit antibody against NLRP3 (1:100, Sigma Aldrich) or rabbit antibody against Caspase-1 (prediluted, AbCam). Isotype IgG was substituted for the primary antibody to assess the specificity of the staining. Bound antibody was detected with biotin-conjugated secondary antibodies, followed by incubation with ABC reagent and visualized by Vector Blue (Vector Laboratories). Levamisole (Vector Laboratories) was used to block endogenous alkaline phosphatase activity. Slides were washed in PBS, counterstained with neutral red (Fisher Scientific), rinsed with deionized water, air dried, and then mounted in Vectamount (Vector Laboratories). Fluorescent labeling of human tissue was performed with the rabbit antibody against PYCARD (1:50, Clone N-15, Santa Cruz Biotechnology). Immunolabeling was visualized by fluorescently conjugated anti-rabbit secondary antibody (Invitrogen). Tissue autofluorescence was quenched by incubating the sections in 0.3% Sudan black (Fisher Scientific). Sections were mounted in Vectashield with DAPI (Vector Laboratories). Mouse RPE/choroid flat mounts were fixed with 4% paraformaldehyde or 100% methanol, stained with rabbit antibodies against human zonula occludens-1 (1:100, Invitrogen) and visualized with Alexa594 (Invitrogen). All images were obtained using the Leica SP-5 or Zeiss Axio Observer Z1 microscopes.
Subretinal injection. Subretinal injections (1 μL) in mice were performed using a Pico-Injector (PLI-100, Harvard Apparatus). In vivo transfection of plasmids coding for two different Alu sequences (pAlu) or empty control vector (pNull) (Bennett et al., 2008; Kaneko et al., 2011; Shaikh et al., 1997) was achieved using 10% Neuroporter (Genlantis). AAV1-BEST1-Cre (Alexander and Hauswirth, 2008) or AAV1-BEST1-GFP were injected at […] pfu/mL and in vitro transcribed Alu RNA was injected at 0.3 mg/mL.
Drug treatments. siRNAs formulated in siRNA buffer (20 mM KCL, 0.2 mM MgCl2 in HEPES buffer at pH 7.5; Dharmacon) or phosphate buffered saline (PBS; Sigma-Aldrich); the TLR4 antagonist Ultra Pure Rhodobacter sphaeroides LPS (LPS-RS, InvivoGen), a peptide inhibitor of MyD88 homodimerization IMG-2005 (IMGENEX), control inhibitor (IMGENEX), recombinant IL-18 (Medical & Biological Laboratories), neutralizing rat antibodies against mouse IL-1β (IMGENEX), neutralizing rat antibodies against mouse IL-18 (Medical & Biological Laboratories), isotype control IgGs (R&D Systems or eBioscience as appropriate), Caspase-1 inhibitor Z-WEHD-FMK (R&D Systems), Caspase-3 inhibitor Z-DEVD-FMK (R&D Systems), Caspase control inhibitor Z-FA-FMK (R&D Systems), (2R,4R)-APDC (Enzo Life Sciences), Glipizide (Sigma-Aldrich), Glyburide (Sigma-Aldrich), and P2X7 receptor antagonist A438079 (Tocris Bioscience) were dissolved in phosphate buffered saline (PBS; Sigma-Aldrich) or dimethyl sulfoxide (DMSO; Sigma-Aldrich), and injected into the vitreous humor in a total volume of 1 μL with a 33-gauge Exmire microsyringe (Ito Corporation). […]

Z-DEVD-FMK
IL-18-induced RPE degeneration [1]: blocked

NCC(=O)O [glycine]
human RPE cell death induced by LPS+ATP ([2]; LPS 5 μg/ml 6 h, ATP 25 μM, glycine 5 mM, 30 min post ATP): inhibited

O=C(Nc1nc2ccccc2n1CCN1CCOCC1)c1cccc([N+](=O)[O-])c1 [N-(2-Morpholinylethyl)-2-(3-nitrobenzoylamido)-benzimidazole]
laser-induced choroidal neovascularization [3]: reduced | Alu RNA-induced RPE degeneration [4]: blocked | Alu RNA-induced cytotoxicity, viability of human RPE cells [2]: protects | pAlu-induced cytotoxicity, viability of human RPE cells [2]: protects
